Read-outs that look alike come from different tables or passages of the source.
Tests used:
[1] = target: T1, glutathione-S-transferase (GST) tagged LXRbeta LBD (ligand binding domain) (Homo sapiens, UniProt P55055); assay: LanthaScreen TR-FRET Liver X Receptor Coactivator Assay, co-activator recruitment to LXRbeta LBD; type: biochemical
T1 construct: purchased Invitrogen pv4658.pps
T1 sequence (P55055 222-460 limits assumed): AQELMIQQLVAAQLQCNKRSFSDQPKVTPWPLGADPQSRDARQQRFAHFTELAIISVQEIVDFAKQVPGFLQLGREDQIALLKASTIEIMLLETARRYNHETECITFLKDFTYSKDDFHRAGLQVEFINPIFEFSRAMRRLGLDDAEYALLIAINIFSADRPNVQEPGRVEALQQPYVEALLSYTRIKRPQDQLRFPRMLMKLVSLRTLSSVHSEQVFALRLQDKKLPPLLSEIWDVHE
How it was run: (§1)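 Efficacy (Emax) and inflection-point potency were scaled to reference agonist T0901317, acting on both LXR subtypes. Ligand-driven coactivator peptide recruitment was detected by TR-FRET after room-temperature incubation with terbium anti-GST antibody.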

[2] = target: T2, glutathione-S-transferase (GST) tagged LXRalpha LBD (ligand binding domain) (Homo sapiens, UniProt Q13133); assay: LanthaScreen TR-FRET Liver X Receptor Coactivator Assay, co-activator recruitment to LXRalpha LBD; type: biochemical; settings: for LXR alpha IP (nM) / EC50: potency (Inflection Point, IP), co-activator recruitment to LXRalpha LBD, in relation to T0901317; for EC50: read-out: LXR alpha IP
T2 construct: purchased Invitrogen pv4655
T2 sequence (Q13133 209-447 limits assumed): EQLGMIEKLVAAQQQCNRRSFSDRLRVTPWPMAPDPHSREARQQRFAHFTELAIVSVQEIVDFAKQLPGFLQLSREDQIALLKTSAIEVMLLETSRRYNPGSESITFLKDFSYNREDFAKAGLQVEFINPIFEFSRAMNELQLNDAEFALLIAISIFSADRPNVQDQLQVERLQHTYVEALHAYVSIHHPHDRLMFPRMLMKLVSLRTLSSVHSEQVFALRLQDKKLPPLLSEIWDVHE
How it was run: as §1

[3] = efficacy at max dose, in relation to reference dual agonist T0901317, read-out: LXR beta Activity @ max dose (%)
[4] = potency (Inflection Point, IP), co-activator recruitment to LXRbeta LBD, in relation to T0901317, read-out: LXR beta IP
[5] = efficacy at max dose, in relation to reference dual agonist T0901317, read-out: LXR alpha Activity @ max dose (%)

Compound	Emax [1, 3]	EC50 [1, 4]	Emax [2, 5]	LXR alpha IP (nM) [2]	EC50 [2]	EC50 ([1]; co-activator recruitment to GST-LXRbeta LBD, TR-FRET, read-out: LXR beta IP (Inflection Point, potency))	Emax ([1]; efficacy in relation to reference dual agonist T0901317, read-out: LXR beta Activity @ max dose)	LXR alpha IP (Inflection Point, potency) ([2]; co-activator recruitment to GST-LXRalpha LBD, TR-FRET)	Emax ([2]; efficacy in relation to reference dual agonist T0901317, read-out: LXR alpha Activity @ max dose)
CN(C)C(=O)c1ccc(N2CCC(CC3(C)CCN(C(=O)[C@](O)(c4cc(Cl)cc(Cl)c4)C(F)(F)F)CC3)CC2)cc1Cl [Example 2-53, 2-chloro-4-[4-({1-[(2R)-2-(3,5-dichloro-phenyl)-3,3,3-trifluoro-2-hydroxy-propanoyl]-4-methylpiperidin-4-yl}methyl)piperidin-1-yl]-N,N-dimethyl-benzamide]	50%	5 nM	0%	NO IP					
CCOc1cccc([C@@](O)(C(=O)N2CCC(CC3CCN(c4ccc(C(=O)N(C)C)c(C)c4)CC3)CC2)C(F)(F)F)c1 [Example 2-151, 4-[4-({1-[(2R)-2-(3-ethoxy-phenyl)-3,3,3-trifluoro-2-hydroxy-propanoyl]piperidin-4-yl}methyl)piperidin-1-yl]-N,N,2-trimethyl-benzamide]	45%	9 nM	4%	NO IP					
CNC(=O)c1ccc(N2CCC(CC3CCN(C(=O)C(O)(c4cccc(C#N)c4)C(F)(F)F)CC3)CC2)nc1Cl (stereo not drawn) [Example 7-144, 2-chloro-6-[4-({1-[2-(3-cyanophenyl)-3,3,3-trifluoro-2-hydroxypropanoyl]piperidin-4-yl}methyl)piperidin-1-yl]-N-methylpyridine-3-carboxamide]	107%	20 nM	61%		215 nM				
COc1cccc([C@@](O)(C(=O)N2CCC(CC3CCN(c4ccc(C(=O)N(C)C)c(C5CC5)n4)CC3)CC2)C(F)(F)F)c1 [Example 7-11, 2-cyclopropyl-N,N-dimethyl-6-[4-({1-[(2R)-3,3,3-trifluoro-2-hydroxy-2-(3-methoxyphenyl)propanoyl]piperidin-4-yl}methyl)piperidin-1-yl]pyridine-3-carboxamide]	73%	19 nM	8%	NO IP					
CN(C)C(=O)c1ccc(N2CCC(CC3CCN(C(=O)[C@](O)(c4cccc(O)c4)C(F)(F)F)CC3)CC2)cc1Cl [Example 2-87, 2-chloro-N,N-dimethyl-4-[4-({1-[(2R)-3,3,3-trifluoro-2-hydroxy-2-(3-hydroxyphenyl)propanoyl]piperidin-4-yl}methyl)piperidin-1-yl]benzamide]	74%	19 nM	14%	NO IP					
COc1cc(Cl)cc([C@@](O)(C(=O)N2CCC(CC3CCN(c4ccc(C(=O)N(C)C)c(Cl)c4)CC3)CC2)C(F)(F)F)c1 [Example 2-100, 2-chloro-4-[4-({1-[(2R)-2-(3-chloro-5-methoxy-phenyl)-3,3,3-trifluoro-2-hydroxy-propanoyl]piperidin-4-yl}methyl)piperidin-1-yl]-N,N-dimethyl-benzamide]	24%	6 nM	0%	NO IP					
CN(C)C(=O)c1ccc(N2CCC(CC3CCN(C(=O)[C@](O)(c4cccc(F)c4)C(F)(F)F)CC3)CC2)cc1Cl [Example 2-84, 2-chloro-N,N-dimethyl-4-[4-({1-[(2R)-3,3,3-trifluoro-2-(3-fluoro-phenyl)-2-hydroxy-propanoyl]piperidin-4-yl}methyl)piperidin-1-yl]benzamide]	83%	7 nM	38%		140 nM				
COc1cccc([C@@](O)(C(=O)N2CCC(CC3CCN(c4ccc(C(=O)N(C)C)c(Cl)c4)CC3)CC2)C(F)(F)C(F)(F)F)c1 [Example 2-89, 2-chloro-N,N-dimethyl-4-[4-({1-[(2R)-3,3,4,4,4-pentafluoro-2-hydroxy-2-{3-methoxyphenyl)butanoyl]piperidin-4-yl}methyl)piperidin-1-yl]benzamide]	83%	21 nM	23%		304 nM				
CN(C)C(=O)c1ccc(N2CCC(CC3CCN(S(=O)(=O)c4cccc(Cl)c4)CC3)CC2)cc1Cl [Example 13-13, 2-chloro-4-[4-({1-[(3-chlorophenyl)sulfonyl]-piperidin-4-yl}methyl)-piperidin-1-yl]-N,N-dimethylbenzamide]						74 nM	49%	NO IP	15%
CCOc1cccc([C@@](O)(C(=O)N2CCC(SC3CCN(c4ccc(C(=O)NC)c(Cl)n4)CC3)CC2)C(F)(F)F)c1 [Example 11-2, 2-chloro-6-[4-({1-[(2R)-2-(3-ethoxyphenyl)-3,3,3-trifluoro-2-hydroxypropanoyl]-piperidin-4-yl}-sulfanyl)piperidin-1-yl]-N-methyl-pyridine-3-carboxamide]	95%	22 nM	10%	NO IP					
CN(C)C(=O)c1ccc(N2CCC(CC3CN(C(=O)[C@](O)(c4cc(F)cc(Cl)c4)C(F)(F)F)C3)CC2)nc1Cl [Example 7-40, 2-chloro-6-[4-({1-[(2R)-2-(3-chloro-5-fluorophenyl)-3,3,3-trifluoro-2-hydroxypropanoyl]azetidin-3-yl}methyl)piperidin-1-yl]-N,N-dimethylpyridine-3-carboxamide]	113%	4 nM	49%		291 nM				
CN(C)C(=O)c1ccc(N2CCC(CC3(C)CCN(C(=O)[C@](O)(c4cc(F)cc(Cl)c4)C(F)(F)F)CC3)CC2)cc1Cl [Example 2-54, 2-chloro-4-[4-({1-[(2R)-2-(3-chloro-5-fluorophenyl)-3,3,3-trifluoro-2-hydroxy-propanoyl]-4-methylpiperidin-4-yl}methyl)piperidin-1-yl]-N,N-dimethyl-benzamide]	79%	4 nM	23%		38 nM				
CN(C)C(=O)c1ccc(N2CCC(CC3CCN(C(=O)C(N)(c4cccc(Cl)c4)C(F)(F)F)CC3)CC2)cc1Cl (stereo not drawn) [Example 2-167, 4-[4-({1-[2-amino-2-(3-chlorophenyl)-3,3,3-trifluoro-propanoyl]piperidin-4-yl}methyl)piperidin-1-yl]-2-chloro-N,N-dimethyl-benzamide]	75%	37 nM	18%	NO IP					
CNC(=O)c1ccc(N2CCC(CC3CCN(C(=O)[C@](O)(c4cc(Cl)cc(Cl)c4)C(F)(F)F)CC3)CC2)cc1Cl [Example 7-116, 2-chloro-4-[4-({1-[(2R)-2-(3,5-dichlorophenyl)-3,3,3-trifluoro-2-hydroxypropanoyl]piperidin-4-yl}methyl)piperidin-1-yl]-N-methylbenzamide]	76%	13 nM	9%	NO IP					
CN(C)C(=O)c1ccc(N2CCC(CC3CN(C(=O)[C@](O)(c4ccccc4)C(F)(F)F)C3)CC2)cc1Cl [Example 2-58, 2-chloro-N,N-dimethyl-4-[4-({1-[(2R)-3,3,3-trifluoro-2-hydroxy-2-phenylpropanoyl]azetidin-3-yl}methyl)piperidin-1-yl]benzamide]	88%	16 nM	38%		951 nM				
Cc1cc(Cl)cc([C@@](O)(C(=O)N2CCC(CC3CCN(c4ccc(C(=O)N(C)C)c(Cl)c4)CC3)CC2)C(F)(F)F)c1 [Example 2-111, 2-chloro-4-[4-({1-[(2R)-2-(3-chloro-5-methylphenyl)-3,3,3-trifluoro-2-hydroxy-propanoyl]piperidin-4-yl}methyl)piperidin-1-yl]-N,N-dimethyl-benzamide]	28%	7 nM	0%	NO IP					
CNC(=O)c1ccc(N2CCC(OC3CCN(C(=O)[C@](O)(c4ccccc4)C(F)(F)F)CC3)CC2)cc1Cl [Example 7-26, 2-chloro-N-methyl-4-[4-({1-[(2R)-3,3,3-trifluoro-2-hydroxy-2-phenylpropanoyl]piperidin-4-yl}oxy)piperidin-1-yl]benzamide]	115%	125 nM	35%		2260 nM				
CN(C)C(=O)c1ccc(N2CCC(OC3CCN(C(=O)[C@](O)(c4ccccc4)C(F)(F)C(F)(F)F)CC3)CC2)cc1Cl [Example 2-22, 2-chloro-N,N-dimethyl-4-[4-({1-[(2R)-3,3,4,4,4-pentafluoro-2-hydroxy-2-phenylbutanoyl]piperidin-4-yl}oxy)piperidin-1-yl]benzamide]	131%	21 nM	51%		900 nM				
